Consider eleven compounds from publication PMC10222548, “Semisynthesis, Biological Evaluation and Molecular Docking Studies of Barbatic Acid Derivatives as Novel Diuretic Candidates” (Molecules, 2023).

The subject of one data set is MDCK cells. The data set can be described thus: MTT cytotoxicity assay on MDCK cells. Format: cell-based, canine. The following applies: Canis lupus familiaris, 100 μmol/L, 24 h, mean ± SD of three replicates, read-out: Growth Inhibition Rate (%). Here is the method:
First, we used the MTT method to perform cytotoxicity of barbatic acid derivatives (1, 6a–6p′) on MDCK cells at the concentration of 100 μmol/L, and the results are shown in Table 1.
The MTT assay was used to evaluate the cytotoxicity of the target compounds on DMCK cells. Logarithmic-growth-phase DMCK cells were seeded in a 96-well plate (10^4 cells/well) and incubated in a cell culture incubator for 24 h. The culture medium was then removed and replaced with a drug-containing medium for the treatment groups (1, 6a–6p′, 100 μmol/L), normal saline for the control group, or hydrochlorothiazide (100 μmol/L) for the positive control group. Each well was treated with 100 µL of the respective solution and incubated for an additional 24 h. The culture medium was then removed and replaced with a DMEM solution containing 20 µL of MTT (5 mg/mL). After incubating for 4 h, the liquid in each well was removed and replaced with 150 µL of DMSO, which was shaken for 10 min to ensure thorough mixing. The absorbance at 490 nm was measured to determine the optical density (OD) of each well. Cell growth inhibition rate (%) = (ODBlank − ODExperimental)/ODBlank × 100%.

In data set [1] the test system is Ca^2+ transport, MDCK cells. The data set can be described thus: In vitro litholytic activity: Ca^2+ transport inhibition, Transwell chamber with MDCK cells. Format: cell-based, canine. The settings on record: Canis lupus familiaris, 100 μmol/L, mean ± SD of three replicates, read-out: Transport Inhibition Rate (%) Ca^2+. Here is the method: (§1) On the other hand, all compounds had little inhibitory effect on Ca^2+ transport. The structure–activity relationships (SARs) were also observed. […] On the other hand, the introduction of the benzyl group to the R^1 or R^2 of barbatic acid could not lead to more promising compounds, such as 6a, 6n, 6u, 6b′, and 6i′–p′.
(§2) Logarithmic-phase DMCK cells were inoculated in the upper chamber of a Transwell plate (4 × 10^4 cells/well). Then, 800 µL of complete culture medium was added to the lower chamber, and the cells were incubated for 24 h until they adhered to the wall. The resistance value of the upper chamber cells was measured one by one at 37 °C (R = (Rcell − Rblank) × 0.04π). When the resistance value of the upper chamber cells was ≥300 Ω cm^2, the upper chamber liquid was discarded for drug administration. A control group (given physiological saline) and an experimental group (1, 6a–6p′, 100 μmol/L) were set up, and 100 µL of each drug was administered per well, followed by continued incubation for 24 h. Then, the upper and lower chamber liquids were discarded, and 200 µL of CaC2O4 (30 mmol/L) solution was added to the upper chamber, and 800 µL of PBS solution was added to the lower chamber for continued incubation. At 0.5, 1, 2, and 3 h, 50 µL of the lower chamber liquid was taken and then tested using the Ca^2+ and C2O4^2− detection kits and the following detection methods. The transport inhibition rate (%) = (ODblank − ODexperimental)/ODblank × 100%.

The subject of data set [2] is C2O4^2− transport, MDCK cells. Put plainly: In vitro litholytic activity: C2O4^2− transport inhibition, Transwell chamber with MDCK cells. Format: cell-based, canine. The following applies: Canis lupus familiaris; 100 μmol/L, MDCK cells in Transwell; mean ± SD of three replicates; read-out: Transport Inhibition Rate (%) C2O4^2−. Here is the method:
as §1, §2

Data set [3] has as its system Cl^− transport, MDCK cells. Put plainly: In vitro diuretic activity: Cl^− transport inhibition, Transwell chamber seeded with MDCK cells. Format: cell-based, canine. The settings on record: Canis lupus familiaris, read-out: Transport Inhibition Rate (%) Cl^−. The source says:
(§3) The traditional methods for screening diuretic drugs are mostly in vivo experiments with mice, which have a long experimental cycle and are not suitable for screening massive compounds. As we know, the generation and excretion of urine involve two processes: glomerular filtration and tubular reabsorption. Reabsorption refers to the process in which the renal tubular epithelial cells transport water and certain solutes from the tubular fluid (urine) partially or entirely back into the bloodstream. Then, 99% of the water in the original urine filtered by the glomerulus is reabsorbed, and the transport of Na^+ and Cl^− plays an important role in this process. Thiazide and furosemide diuretics exert their diuretic effects by inhibiting the transport of Na^+ and Cl^−, which affects the tubular reabsorption of the original urine. Based on this principle, we established a new type of cell screening model for diuretic active drugs. Madin–Darby canine kidney (MDCK) cells were inoculated into a Transwell chamber to simulate the renal tubules. This cell model could transport and absorb external NaCl, simulating the reabsorption phenomenon. […] The effectiveness of this model was confirmed by the validation of hydrochlorothiazide, which is a commercially available diuretic drug and could inhibit the transport of Na^+ and Cl^− in renal tubules.
(§4) Generally, the transport of Na^+ and Cl^− plays an important role in glomerular filtration and tubular reabsorption. […] For example, inhibition rates of transport of 6a and 6c were over 30%, and had better inhibitory ability than barbatic acid. […] When ethyl, propyl, and benzyl were substituted on R^1, the introduction of any group could not enhance the inhibitory activity of barbatic acid, such as 6h–u and 6j′–6p′.
(§5) Log-phase MDCK cells were seeded in the upper chambers of Transwell plates (4 × 10^4 cells/well), and 800 µL of complete culture medium was added to the lower chambers. After 24 h of incubation at 37 °C, the electrical resistance of the upper chamber cells was measured one by one (R = (Rcell − Rblank) × 0.04π). When the electrical resistance of the upper chamber cells reached ≥300 Ω cm^2, the upper chamber medium was removed and replaced with the drug solution. The blank group (given normal saline), the experimental group (1, 6a–6p′, 100 μmol/L), and the hydrochlorothiazide group (100 μmol/L) were set, and each well was treated with 100 µL of the corresponding solution. The cells were then further incubated for 24 h. After that, the upper and lower chamber fluids were removed, and 200 µL of NaCl solution (15 mg/mL) was added to the upper chamber, while 800 µL of DMEM was added to the lower chamber for continued incubation. At 0.5, 1, 2, and 3 h, 50 µL of the lower chamber fluid was taken and the OD values were measured using Na^+ and Cl^− detection kits. The transport inhibition rate (%) was calculated as follows: transport inhibition rate (%) = (ODblank − ODexperimental)/ODblank × 100%.

Data set [4] concerns Na^+ transport, MDCK cells. The data set can be described thus: In vitro diuretic activity: Na^+ transport inhibition, Transwell chamber seeded with MDCK cells. The settings on record: for inhibition at 100 µM: Canis lupus familiaris, MDCK. Type of data set: cell-based, canine.
Excerpt: as §3, §4, §5

The mark [5] stands for this setting: 100 μmol/L, MDCK cells in Transwell, mean ± SD of three replicates, negative = promotion.
[6] abbreviates: 100 μmol/L, MDCK cells in Transwell, mean ± SD of three replicates, negative = promotion, read-out: Transport Inhibition Rate (%) Na^+.

Where two headings read alike, the source gives them in different places.

In general, melting point refers to the temperature, or range, at which the solid turns liquid. In the case of `Cc1cc(OC(=O)c2c(C)cc(OC(C)C)c(C)c2O)c(C)c(O)c1C(=O)OCC#N` [6a′, 4-((cyanomethoxy)carbonyl)-3-hydroxy-2,5-dimethylphenyl 2-hydroxy-4-isopropoxy-3,6-dimethylbenzoate], the melting point lay within 155 to 158 °C. Also, in the data set with MDCK cells, the inhibition at 100 µM was less than 0%. Further, the inhibition at 100 µM in data set [1] is -0.91 ± 0.11%. The inhibition at 100 µM in data set [2] is -13.2 ± 1.67%. Further, the inhibition at 100 µM in data set [3] (setting [5]) was -10 ± 1.95%. Besides, the inhibition at 100 µM in data set [4] (setting [6]) was -15.8 ± 4.85%.

The compound `Cc1cc(OC(=O)c2c(C)cc(OC(C)C)c(C)c2O)c(C)c(O)c1C(=O)OCc1ccccc1` [6b′, benzyl 2-hydroxy-4-(2-hydroxy-4-isopropoxy-3,6-dimethylbenzoyloxy)-3,6-dimethylbenzoate] came in with a melting point of 83 to 86 °C. In addition, the inhibition at 100 µM in the data set with MDCK cells is less than 0%. In data set [1], the inhibition at 100 µM is 0.73 ± 0.08%. Also, the inhibition at 100 µM in data set [2] is -20.6 ± 1.31%. Moreover, in data set [3] (setting [5]), the inhibition at 100 µM turned out to be 15.9 ± 0.25%. Moreover, the “Transport Inhibition Rate (%) Na^+” value in data set [4] (setting [5]) is 33.08 ± 0.35%. Besides, the inhibition at 100 µM in data set [4] (setting [6]) is more than 30%. The “Na^+ transport inhibition rate at 1, 2, and 3 h” value in data set [4] (evaluated at 1, 2, and 3 h (Figure 3)) is given as “above 20%”.

For the compound `C=CCOc1cc(C)c(C(=O)Oc2cc(C)c(C(=O)OCC)c(O)c2C)c(O)c1C` [6d′, 4-(ethoxycarbonyl)-3-hydroxy-2,5-dimethylphenyl 4-(allyloxy)-2-hydroxy-3,6-dimethylbenzoate], the melting point was 116 to 120 °C. In the data set on MDCK cells, the inhibition at 100 µM came out at 1.42%. Besides, the inhibition at 100 µM in data set [1] worked out at 2.04 ± 0.03%. Further, in data set [2], the inhibition at 100 µM stood at 0.52 ± 1.86%. Besides, the inhibition at 100 µM in data set [3] (setting [5]) was -5.06 ± 0.35%. Besides, the inhibition at 100 µM in data set [4] (setting [6]) was -7.24 ± 0.75%.

In the case of `C=CCOc1cc(C)c(C(=O)Oc2cc(C)c(C(=O)OCCC)c(O)c2C)c(O)c1C` [6e′, 3-hydroxy-2,5-dimethyl-4-(propoxycarbonyl)phenyl 4-(allyloxy)-2-hydroxy-3,6-dimethylbenzoate], the inhibition at 100 µM with MDCK cells is less than 0%; in data set [1], 2.04 ± 0.08%; in data set [2], 5.77 ± 3.15%; in data set [3] (setting [5]), -12.9 ± 0.85%; in data set [4] (setting [6]), 2.79 ± 0.25%.

For `C=CCOC(=O)c1c(C)cc(OC(=O)c2c(C)cc(OCC=C)c(C)c2O)c(C)c1O` [6g′, allyl 4-(4-(allyloxy)-2-hydroxy-3,6-dimethylbenzoyloxy)-2-hydroxy-3,6-dimethylbenzoate], the melting point lay in the range of 110 to 113 °C. In the data set with MDCK cells, the inhibition at 100 µM is less than 0%. Further, the inhibition at 100 µM in data set [1] worked out at 2.79 ± 0.13%. The inhibition at 100 µM in data set [2] was -11.3 ± 1.9%. The inhibition at 100 µM in data set [3] (setting [5]) worked out at 18.6 ± 2.2%. The inhibition at 100 µM in data set [4] (setting [6]) amounted to 5.29 ± 0.15%.

With `C=CCOc1cc(C)c(C(=O)Oc2cc(C)c(C(=O)OCC#N)c(O)c2C)c(O)c1C` [6h′, allyl 4-((cyanomethoxy)carbonyl)-3-hydroxy-2,5-dimethylphenyl 4-(allyloxy)-2-hydroxy-3,6-dimethylbenzoate], the melting point was in the range of 124 to 127 °C. In addition, the inhibition at 100 µM in the data set with MDCK cells was less than 0%. In addition, the inhibition at 100 µM in data set [1] was -0.38 ± 0.16%. Further, in data set [2], the inhibition at 100 µM is 10.7 ± 1.41%. Further, in data set [3] (setting [5]), the inhibition at 100 µM was found to be 0.62 ± 0.7%. Further, the inhibition at 100 µM in data set [4] (setting [6]) is -14.4 ± 2.4%.

`C=CCOc1cc(C)c(C(=O)Oc2cc(C)c(C(=O)OCc3ccccc3)c(O)c2C)c(O)c1C` [6i′, benzyl 4-(4-(allyloxy)-2-hydroxy-3,6-dimethylbenzoyloxy)-2-hydroxy-3,6-dimethylbenzoate] registered a melting point of 75 to 78 °C. The inhibition at 100 µM in the data set with MDCK cells worked out at 2.43 ± 0.3%. In data set [1], the inhibition at 100 µM turned out to be 2.68 ± 0.11%. Moreover, the inhibition at 100 µM in data set [2] was 11.4 ± 1.13%. The inhibition at 100 µM in data set [3] (setting [5]) is -8.43 ± 2.85%. In data set [4] (setting [6]), the inhibition at 100 µM is -12.9 ± 1.6%.

In turn, `COC(=O)c1c(C)cc(OC(=O)c2c(C)cc(OCc3ccccc3)c(C)c2O)c(C)c1O` [6j′, 3-hydroxy-4-(methoxycarbonyl)-2,5-dimethylphenyl 4-(benzyloxy)-2-hydroxy-3,6-dimethylbenzoate] had a melting point of 131 to 134 °C. Besides, the inhibition at 100 µM in the data set on MDCK cells is less than 0%. In addition, in data set [1], the inhibition at 100 µM came out at 0%. In addition, the inhibition at 100 µM in data set [2] was -1.79 ± 3.79%. In addition, the inhibition at 100 µM in data set [3] (setting [5]) stood at 0.62 ± 0.8%. Moreover, in data set [4] (setting [6]), the inhibition at 100 µM is -5.13 ± 0.25%.

`CCOC(=O)c1c(C)cc(OC(=O)c2c(C)cc(OCc3ccccc3)c(C)c2O)c(C)c1O` [6k′, 4-(ethoxycarbonyl)-3-hydroxy-2,5-dimethylphenyl 4-(benzyloxy)-2-hydroxy-3,6-dimethylbenzoate] returned a melting point of 123 to 126 °C. The inhibition at 100 µM with MDCK cells was 1.45 ± 0.1%. Moreover, the inhibition at 100 µM in data set [1] was found to be 1.34 ± 0.1%. Besides, the inhibition at 100 µM in data set [2] is 10.3 ± 2.11%. In addition, the inhibition at 100 µM in data set [3] (setting [5]) was -19.6 ± 2.4%. Besides, in data set [4] (setting [6]), the inhibition at 100 µM came to 14.1 ± 3.2%.

`CCCOC(=O)c1c(C)cc(OC(=O)c2c(C)cc(OCc3ccccc3)c(C)c2O)c(C)c1O` [6l′, 3-hydroxy-2,5-dimethyl-4-(propoxycarbonyl)phenyl 4-(benzyloxy)-2-hydroxy-3,6-dimethylbenzoate] showed a melting point of 115 to 118 °C. In addition, the inhibition at 100 µM in the data set with MDCK cells was found to be 2.11 ± 0.9%. Also, in data set [1], the inhibition at 100 µM is -2.68 ± 0.39%. The inhibition at 100 µM in data set [2] is 16.5 ± 4.38%. Further, in data set [3] (setting [5]), the inhibition at 100 µM was -2.92 ± 2.15%. The inhibition at 100 µM in data set [4] (setting [6]) was -18.2 ± 0.2%.

Turning to `NS(=O)(=O)c1cc2c(cc1Cl)NCNS2(=O)=O` [Hyd, hydrochlorothiazide, reference compound], the inhibition at 100 µM in the data set with MDCK cells is less than 0%; in data set [3] (MDCK), 19.7 ± 1%; in data set [4] (read-out: Transport Inhibition Rate (%) Na^+, 100 μmol/L, MDCK cells in Transwell, mean ± SD of three replicates, negative = promotion) it was 25.1 ± 0.85%.
